Key:
Hippocampal Cultures [1] = test: Neuroprotection from hydrogen peroxide (oxidative stress), CFDA assay; type: cell-based; conditions: Rattus norvegicus, 10 μM Hydrogen Peroxide, read-out: NP from HP CFDA EC50
From the text: (§1) Cell cultures: All compounds are screened with dissociated hippocampal cultures derived from embryonic day 18 rats as the primary test system. With this preparation, primary neurons are used to test for toxicity as well as neuroprotection in a highly relevant experimental system to epilepsy. In brief, hippocampal tissue are obtained commercially through Brain Bits (Springfield, Ill.) and cultures prepared as previously described by Brewer (Brewer, G. J. Serum-free B27/neurobasal medium supports differentiated growth of neurons from the striatum, substantia nigra, septum, cerebral cortex, cerebellum and dentate gyms, J. Neurosci. Res. 1995, 42, 674-683.). The hippocampal neurons are platted at low density (10,000 cell/well) in a 96-well format and maintained in serum-free medium consisting of Neurobasal Medium supplemented with B27 and GlutaMAX (Gibco). Pre-coated poly-L-lysine coated plates are used because of the preferential adherence and survival of hippocampal neurons on this matrix support.
(§2) Potent neuroprotection is the distinguishing characteristic that separates this program's anticonvulsants from all other commercial drugs for epilepsy. The experimental details and the rationale for the implemented assays are essential in differentiating these compounds from that of others. The central objective of all neuroprotective assays was their relevancy to excitotoxicity and oxidative stress related to epilepsy. Both the amount of glutamate and hydrogen peroxide used in the assays, as well as the time of treatment and duration of the experiment, were designed to be relevant to epilepsy. Further, all time parameters employed in these studies were empirically determined to be within the limits of reversible toxic events, yet using amounts of glutamate and hydrogen peroxide that were relevant to the disease. In regard to glutamate toxicity, a critical feature was the duration of treatment of the hippocampal neurons. The rational for using a short 5 min treatment with glutamate was based on the observation of Randall and Thayer (Randall, R. D.; Thayer, S. A. Glutamate-induced calcium transient triggers calcium overload and neurotoxicity in rat hippocampal neurons, J. Neurosci. 1992, 12, 1882-1895). […] The rationale is that this intense burst of glutamate and resulting calcium overload is relevant to seizures and therefore was important data to capture in the screening assay. The amount of glutamate (30 μM) employed in our screening was based on the basal levels of glutamate observed in microdialysis measurements of hippocampus from epileptogenic patients (Cavus et al. Decreased hippocampal volume on MRI is associated with increased extracellular glutamate in epilepsy patients, Epilepsia, 2008, 49, 1358-1366.). In regard to hydrogen peroxide, the amount employed (10 μM) was detected in the hippocampus of rats after kainate-induced status epilepticus (Jarrett et. al., Mitochondrial DNA damage and impaired base excision repair during epileptogenesis, Neurobiol. Dis. 2008, 30, 130-138). To produce neural damage and death with these amounts of glutamate and hydrogen peroxide, the cultures were changed to a medium with significant depletion of antioxidant components in the defined medium supplement B-27 just prior to treatment with the compounds. This was performed to obtain a significant and reproducible toxic signal in the hippocampal neurons and because loss of antioxidant control may be a component of epileptogenesis (Waldbaum and Patel, Mitochondria, oxidative stress and temporal lobe epilepsy, Epilepsy Res. 2010 88, 23-45.; Wu et al., Mitochondrial DNA mutation-elicited oxidative stress, oxidative damage, and altered gene expression in cultured cells of patients with MERRF syndrome, Mol. Neurobiol. 2010, 41, 256-266.). Neuroprotection studies with hydrogen peroxide were conducted with cultures that were between day 12 and day 18. Studies of neuroprotection glutamate were conducted between day 19 and day 22. […]

Hippocampal Cultures [2] = test: Neuroprotection from glutamate excitotoxicity, CFDA neuronal viability assay; type: cell-based, rat; conditions: for EC50: Rattus norvegicus, 30 μM glutamate, Hippocampal Cultures, read-out: NP from Glutamate CFDA EC50
Protocol: Pharmacology: Hydroxyethyl sulfamides attenuate glutamate-mediated neuronal viability. As an example, compound II, shown above, is shown to attenuate a decrease in carboxyfluorescein diacetate (CFDA) produced by acute treatment with glutamate in FIG. 1. For these studies, day 20 hippocampal cultures derived from E18 rats were treated for 5 min with 30 μM glutamate. Following removal of the glutamate, cultures were treated with various concentrations of compound II and the CFDA neuronal viability assay was conducted 24 hours after the initiation of treatment. The dotted line labeled “control” represents the mean CFDA value for control culture receiving no treatment. The dotted line labeled “carisbamate” represents the mean CFDA value for the reference compound carisbamate, a putative neuroprotective, anticonvulsant. For the CFDA measurements, RFU is the abbreviation for relative fluorescent units. The reference anticonvulsant compound carisbamate was tested at 100 μM, as lower concentrations were ineffective.
as §1
(§3) Carboxyfluorescein (CFDA) was used a vital stain for all cell toxicity and neuroprotection studies. With the use of the CytoFluor fluorimeter, the CFDA assay was employed to assess the viability of neurons. CFDA is a dye that becomes fluorescent upon cell entry and cleavage by cytosolic esterases (Petroski, R. E.; Geller, H. M Selective labeling of embryonic neurons cultures on astrocyte monolayers with 5(6)-carboxyfluorescein diacetate (CFDA). J. Neurosci. Methods 1994, 52, 23-32.). Neuronal specificity is obtained relative to astrocytes because the cleaved dye is extruded extracellularly by glia with time, while dye in neurons remains intracellular. […] To further assess the culture responses, a propidium iodide method was used as previously described (Sarafian, T. A.; Kouyoumjian, S.; Tashkin, D.; Roth, M. D. Synergistic cytotoxicity of 9-tetrahydrocannabianol and butylated hydroxyanisole, Tox. Letters, 2002. 133, 171-179.) to measure the number of dead cells. Propidium iodide becomes fluorescent when binding to the DNA of dead cells. Cultures were treated on day 2 with the test agent and then the two assays were conducted after a […] test period. For all assays, a 96-well format was used. For the screen, log concentration-effect studies were conducted from 10 nM to 1 mM with 8 replications. The duration of the test period was five days. Cultures were given a complete change of medium prior to the initiation of the treatment period.
Potent neuroprotection is the distinguishing characteristic that separates this program's anticonvulsants from all other commercial drugs for epilepsy. The experimental details and the rationale for the implemented assays are essential in differentiating these compounds from that of others. The central objective of all neuroprotective assays was their relevancy to excitotoxicity and oxidative stress related to epilepsy. […]

Hippocampal Cultures [3] = test: Neuroprotection from glutamate excitotoxicity, propidium iodide cell death assay; type: cell-based, rat; conditions: for EC50: Rattus norvegicus, Hippocampal Cultures, read-out: NP from Glutamate PI EC50
Protocol: Hydroxyethyl sulfamides attenuate glutamate-mediated cell death: As an example of HES compounds that prevent cell death associated with glutamate, compound II is shown to attenuate an increase in propidium iodide (PI) produced by acute treatment with glutamate in FIG. 4. For these studies, day 20 hippocampal cultures derived from E18 rats were treated for 5 min with 30 μM glutamate. Following removal of the glutamate, cultures were treated with various concentrations of compound II and the propidium iodide method for measuring cell death was conducted 24 hours after the initiation of treatment. The dotted line labeled “control” represents the mean PI value for control culture receiving no treatment. The dotted line labeled “carisbamate” represents the mean PI value for the reference compound carisbamate, a putative neuroprotective anticonvulsant. The amount of carisbamate used was 100 μM and this concentration had the maximally observed efficacy for this compound. RFU is an abbreviation for relative fluorescent units. Day 15 is the number of days that the cultures were maintained in vitro before conducting the experiment.
as §1, §3
Potent neuroprotection is the distinguishing characteristic that separates this program's anticonvulsants from all other commercial drugs for epilepsy. The experimental details and the rationale for the implemented assays are essential in differentiating these compounds from that of others. […]

Hippocampal Cultures [4] = test: Neuroprotection from hydrogen peroxide (oxidative stress), propidium iodide assay; type: cell-based; conditions: Rattus norvegicus, 10 μM Hydrogen Peroxide, read-out: NP from HP PI EC50
From the text: as §1, §2

[5] = day 20 hippocampal cultures, 5 min 30 μM glutamate, CFDA assay 24 hours after initiation of treatment (FIG. 1-3)

EC50 (Hippocampal Cultures [1]) [µM] | EC50 (Hippocampal Cultures [4]) [µM] | Compound | EC50 (Hippocampal Cultures [2]) [µM] | EC50 (Hippocampal Cultures [3]; 30 μM glutamate) [µM] | effect on glutamate-mediated decrease in neuronal viability (CFDA) (Hippocampal Cultures [2]; [5]) | effect on glutamate-mediated decrease in neuronal viability (CFDA) (Hippocampal Cultures [2]; concentrations lower than 100 μM) | concentration with the maximally observed efficacy (propidium iodide) (Hippocampal Cultures [3]; hippocampal cultures, 30 μM glutamate) [µM] | effect on glutamate-mediated increase in cell death (propidium iodide) (Hippocampal Cultures [3]; day 20 hippocampal cultures, 5 min 30 μM glutamate, PI 24 hours after initiation of treatment (FIG. 4))
1 | 0.1 | NS(=O)(=O)NCC(O)c1ccccc1F (stereo in doubt) [Example 10, (S)-2-(2-Fluorophenyl)-2-hydroxyethylsulfamide] | 300 | 0.1 | – | – | – | –
100 | 100 | NS(=O)(=O)NCC(O)c1cccc(Cl)c1 (stereo not drawn) [Example 2, 2-(3-Chlorophenyl)-2-hydroxyethylsulfamide] | > 300 | > 300 | – | – | – | –
> 300 | > 300 | NS(=O)(=O)NCC(O)c1cc(Cl)ccc1Cl (stereo not drawn) [Example 5, 2-(2,5-dichlorophenyl)-2-hydroxyethylsulfamide] | > 300 | 30 | – | – | – | –
100 | 30 | NS(=O)(=O)NCC(O)c1cc2ccccc2s1 (stereo not drawn) [Example 4, 2-(benzothiophen-2-yl)-2-hydroxyethylsulfamide] | 100 | 10 | – | – | – | –
10 | 0.01 | NS(=O)(=O)NCC(O)c1ccccc1F (stereo not drawn) [Example 6, 2-(2-fluorophenyl)-2-hydroxyethylsulfamide] | 100 | 10 | – | – | – | –
300 | > 300 | NS(=O)(=O)NC[C@H](O)c1ccccc1Cl [Example 13, (R)-2-(2-Chlorophenyl)-2-hydroxyethylsulfamide] | 0.01 | 10 | – | – | – | –
30 | > 300 | NS(=O)(=O)NC[C@@H](O)c1ccccc1Cl [Example 12, (S)-2-(2-Chlorophenyl)-2-hydroxyethylsulfamide] | 30 | 10 | – | – | – | –
300 | 300 | NS(=O)(=O)NCC(O)c1ccccc1F (stereo in doubt) [Example 11, (R)-3-(2-Fluorophenyl)-2-hydroxyethylsulfamide] | – | – | – | – | – | –

Continued, molecule first:

Compound | EC50 (Hippocampal Cultures [1]) [µM] | EC50 (Hippocampal Cultures [4]) [µM] | EC50 (Hippocampal Cultures [2]) [µM] | EC50 (Hippocampal Cultures [3]; 30 μM glutamate) [µM] | effect on glutamate-mediated decrease in neuronal viability (CFDA) (Hippocampal Cultures [2]; [5]) | effect on glutamate-mediated decrease in neuronal viability (CFDA) (Hippocampal Cultures [2]; concentrations lower than 100 μM) | concentration with the maximally observed efficacy (propidium iodide) (Hippocampal Cultures [3]; hippocampal cultures, 30 μM glutamate) [µM] | effect on glutamate-mediated increase in cell death (propidium iodide) (Hippocampal Cultures [3]; day 20 hippocampal cultures, 5 min 30 μM glutamate, PI 24 hours after initiation of treatment (FIG. 4))
NS(=O)(=O)N1CC(O)(c2csc3ccccc23)C1 [Example 9, 3-Benzo[b]thiophen-3-yl-3-hydroxy-azetidine-1-sulfonamide] | > 300 | > 300 | 0.1 | 1 | – | – | – | –
NS(=O)(=O)NCC(O)c1csc2ccccc12 (stereo not drawn) [compound IV] | – | – | – | – | efficacious | – | – | –
NC(=O)OC[C@@H](O)c1ccccc1Cl [carisbamate, reference compound] | – | – | – | – | – | ineffective | 100 | –
NS(=O)(=O)NCC(O)c1ccsc1 (stereo not drawn) [Example 3, 2-(thiophen-3-yl)-2-hydroxyethylsulfamide] | 30 | 30 | > 300 | 30 | – | – | – | –
NS(=O)(=O)NCC(O)c1csc2ccccc12 (stereo not drawn) [Example 7, 2-(benzothiophen-3-yl)-2-hydroxyethylsulfamide] | – | – | 30 | > 300 | – | – | – | –
NS(=O)(=O)NCC(O)c1ccccc1Cl (stereo not drawn) [compound II] | – | – | – | – | attenuate | – | – | attenuate
NS(=O)(=O)NCC(O)c1ccccc1Cl (stereo not drawn) [Example 1, 2-(2-Chlorophenyl)-2-hydroxyethylsulfamide] | – | – | 30 | 100 | – | – | – | –
CC(O)(CNS(N)(=O)=O)c1ccccc1Cl (stereo not drawn) [Example 8, 2-(2-chlorophenyl)-2-methyl-2-hydroxyethylsulfamide] | 100 | 0.1 | > 300 | 300 | – | – | – | –
